In patent publication US20200087258A1, “INHIBITOR OF CITRATE TRANSPORTER AND THEIR USE IN THERAPY” (Eternygen GmbH, priority 2017, published 2020):

Tests used:
[1] = target: T1, INDY (Homo sapiens, UniProt Q86YT5); test: 14C-citrate uptake in HepG2 cells endogenously expressing INDY (NaCT); assay type: cell-based; details: endogenous INDY
Procedure: The compound was obtained by screening of a library containing more than 50,000 lead-like compounds and fragments. The library was tested using a functional citrate uptake assay with HEK293 cells overexpressing recombinant human INDY. The following hit confirmation was conducted in the same assay system. To confirm the activity of selected compounds on the target INDY another cell assay was conducted. In this assay system citrate uptake was measured using HepG2 cells which endogenously express INDY. Furthermore selectivity of selected compounds was tested for two other transporters in different assay systems. The first transporter was the glutamate transporter GLT-1 tested in a glutamate uptake assays using HEK293 cells overexpressing recombinant human GLT-1. The second transporter was the glucose transporter GLUT1 tested in a glucose uptake assay using Huh-7 cells which endogenously express GLUT1. Compounds were considered to be selective with an at least 5-fold higher activity for INDY than for the other two transporters.
Cells were maintained in cell medium using cell culture grade flasks (CellSTACK Corning, 500 cm2 dishes or T175 depending on cell number). The selection antibiotic and G418 (800 μg/ml) was added during cultivation but not for seeding into assay plates. For splitting, cells were washed with PBS (w/o Ca2+, Mg2+, phenol red) and detached with Trypsin/EDTA. Throughout cultivation cells were kept sub-confluent. Detached cells (50,000 cells/well) were seeded in 96-well plates (white, clear bottom from Corning #655098) and incubated over night before usage in the assay. The following media were used. For HEK293 cells expressing INDY MEM (PAA)+10% FCS+1×P/S+2 mM L-Gln; for HEK293 cells expressing GLT-1 DMEM (Gibco)+10% FCS+400 µg/ml G418; for Huh7 cells DMEM (Gibco)+10% FCS+2 mM L-Gin (+1×P/S); for HepG2 cells MEM (PAA, Cat # E15-024)+10% FCS+2 mM L-Gin+1×NEAA+1 mM Na-Pyruvat
The following assay buffers for the particular uptake reaction were used. Citrate uptake buffer: 120 mM NaCl, 5.4 mM KCl, 0.8 mM MgSO4, 5 mM glucose, 1.8 mM CaCl2, 25 mM Hepes, 25 mM MES, pH 6.5. Glutamate uptake buffer: HBSS, 1 mM CaCl2, 1 mM MgCl2, 20 mM Hepes pH 7.4. Glucose uptake buffer: 25 mM Hepes+25 mM MES pH 7.4, 120 mM NaCl, 5.4 mM KCl, 1.8 mM CaCl2, 0.8 mM MgSO4.
INDY mediated citrate uptake was also determined in HepG2 cells. To determine the uptake of ^14C labelled citrate into cells, HepG2 cells endogenously expressing human NaCT were used. (Gopal et al. 2007 Am J Physiol Gastrointest Liver Physiol 292).
HepG2 cells were seeded into white clear-bottom 96-well plates (50,000/well) coated with collagen and incubated at 37° C. for 16-24 hours. After that plates were washed once with assay buffer using automated washing/LS 405 Selectors, BioTek ending with a buffer volume of 40 μl. Then 5 μl of compound solution in assay buffer was added and incubated for 5 min at 37° C. in cell incubator, HERA cell Heraeus. Afterwards 10 μl of substrate 14C-citrate (10 nM) were added and incubated for another 90 min at 37° C. in cell incubator, HERAcell. Then plates were washed 3× with 200 μl buffer and […] cell lysis induced by adding 50 μl ice-cold NaOH (100 mM). Plates were incubated for 25 min at RT on a plate shaker and afterwards 200 μl scintillation fluid was added and incubated for 15 min on a plate shaker at RT and for another 15 min without shaking at RT. Plates were measured using a TopCount system. As a positive control 5 mM citrate was applied. It is possible to use this assay also in analogy in a 384-well plate format.

[2] = target: T1, INDY; test: 14C-citrate uptake in HEK293 cells overexpressing recombinant human INDY (NaCT); assay type: cell-based; set-up: expressed in transfected cells; host or cells: HEK293
In short: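 HEK293 cells overexpressing human NaCT, 50,000/well, preincubated 5-30 min at 37 °C with compound in pH 6.5 Na+ buffer. 14C-citrate ([…]) uptake then ran 20-90 min at 37 °C, followed by ice-cold washes, NaOH lysis and scintillation counting. 10 mM citrate served as positive control.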

T1 sequence (Q86YT5 whole entry, the tested form may be a part): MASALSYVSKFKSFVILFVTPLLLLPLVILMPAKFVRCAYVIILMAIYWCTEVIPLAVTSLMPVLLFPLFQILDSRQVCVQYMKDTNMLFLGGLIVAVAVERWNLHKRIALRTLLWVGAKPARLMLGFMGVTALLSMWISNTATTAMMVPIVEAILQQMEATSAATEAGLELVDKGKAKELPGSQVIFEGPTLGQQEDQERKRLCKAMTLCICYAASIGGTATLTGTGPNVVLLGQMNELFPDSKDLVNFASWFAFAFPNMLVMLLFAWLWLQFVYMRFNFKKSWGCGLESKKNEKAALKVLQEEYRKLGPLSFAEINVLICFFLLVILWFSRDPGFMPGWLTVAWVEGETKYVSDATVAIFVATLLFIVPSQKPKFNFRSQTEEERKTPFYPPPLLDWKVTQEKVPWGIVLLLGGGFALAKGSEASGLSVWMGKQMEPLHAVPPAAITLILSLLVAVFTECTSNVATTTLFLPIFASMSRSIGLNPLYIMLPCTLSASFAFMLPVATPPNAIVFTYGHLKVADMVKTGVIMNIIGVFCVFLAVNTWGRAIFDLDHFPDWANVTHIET

| Compound | IC50 [1] | IC50 [2] |
| --- | --- | --- |
| O=C(NCc1ccccc1F)C1CCN(S(=O)(=O)c2cccc(Cl)c2)CC1 [Example 59, 1-(3-chlorobenzenesulfonyl)-N-[(2-fluorophenyl)methyl]piperidine-4-carboxamide] | 0.9 µM | 1.1 µM |
| O=C(NCc1ccccn1)C1CCN(S(=O)(=O)c2cc(Cl)ccc2Cl)CC1 [Example 62, 1-(2,5-dichlorobenzenesulfonyl)-N-[(pyridin-2-yl)methyl]piperidine-4-carboxamide] | 4.6 µM | 8.2 µM |
| O=C(NCc1ccccn1)C1CCN(S(=O)(=O)c2ccc(Cl)c(Cl)c2)CC1 [Example 67, 1-(3,4-dichlorobenzenesulfonyl)-N-[(pyridin-2-yl)methyl]piperidine-4-carboxamide] | 7.2 µM | 18.3 µM |
| O=C(NCc1ccccc1CO)C1CCN(S(=O)(=O)/C=C/c2ccccc2)CC1 [Example 69, N-{[2-(hydroxymethyl)phenyl]methyl}-1-[(E)-2-phenylethenesulfonyl]pipendine-4-carboxamide] | 4.5 µM | 11.7 µM |
| O=C(NCc1ccccn1)C1CCN(S(=O)(=O)c2cccc(S(F)(F)(F)(F)F)c2)CC1 [Example 85, 1-[3-(pentafluoro-lambda6-sulfanyl)benzenesulfonyl]-N-[(pyridin-2-yl)methyl]pipendine-4-carboxamide] | 3 µM | 6.4 µM |
| O=C(NCc1ccccn1)C1CCN(S(=O)(=O)c2ccc(I)cc2)CC1 [Example 95, 1-(4-iodobenzenesulfonyl)-N-[(pyridin-2-yl)methyl]piperidine-4-carboxamide] | 2.4 µM | 5.5 µM |
| O=C(NCc1ccccn1)C1CCN(S(=O)(=O)c2ccc(C3CC3)cc2)CC1 [Example 97, 1-(4-cyclopropylbenzenesulfonyl)-N-[(pyridin-2-yl)methyl]piperidine-4-carboxamide] | 3.8 µM | 9.2 µM |
| O=C(NCc1ccccn1)C1CCN(S(=O)(=O)c2ccc(CC(F)(F)F)cc2)CC1 [Example 99, N-[(pyridin-2-yl)methyl]-1-[4-(2,2,2-trifluoroethyl)benzenesulfonyl]piperidine-4-carboxamide] | 3.2 µM | 6.3 µM |
| O=C(NCc1cccc(O)c1)C1CCN(S(=O)(=O)c2cc(Cl)cc(Cl)c2)CC1 [Example 114, 1-(3,5-dichlorobenzenesulfonyl)-N-[(3-hydroxyphenyl)methyl]piperidine-4-carboxamide] | 0.6 µM | 0.7 µM |
| O=C(NCc1cccc(F)c1)C1CCN(S(=O)(=O)c2cc(Cl)cc(Cl)c2)CC1 [Example 115, 1-(3,5-dichlorobenzenesulfonyl)-N-[(3-fluorophenyl)methyl]piperidine-4-carboxamide] | 0.1 µM | 0.2 µM |

Now from value to compound:

| IC50 [1] | IC50 [2] | Compound |
| --- | --- | --- |
| 5.1 µM | 7.1 µM | O=C(NCc1ccccn1)C1CCN(S(=O)(=O)c2ccc(C(F)(F)F)cc2Cl)CC1 [Example 74, 1-[2-chloro-4-(trifluoromethyl)benzenesulfonyl]-N-[(pyridin-2-yl)methyl]piperidine-4-carboxamide] |
| 3.3 µM | 5.7 µM | O=C(NCc1ccccn1)C1CCN(S(=O)(=O)c2cccc(C(F)(F)F)c2)CC1 [Example 75, N-[(pyridin-2-yl)methyl]-1-[3-(trifluoromethyl)benzenesulfonyl]pipendine-4-carboxamide] |
| 2.4 µM | 4.9 µM | O=C(NCc1ccccn1)C1CCN(S(=O)(=O)c2cc(F)cc(Cl)c2)CC1 [Example 78, 1-(3-chloro-5-fluorobenzenesulfonyl)-N-[(pyridin-2-yl)methyl]pipendine-4-carboxamide] |
| 2.2 µM | 4.3 µM | O=C(NCc1ccccn1)C1CCN(S(=O)(=O)c2cc(F)cc(C(F)(F)F)c2)CC1 [Example 84, 1-[3-fluoro-5-(trifluoromethyl)benzenesulfonyl]-N-[(pyridin-2-yl)methyl]pipendine-4-carboxamide] |
